{
  "source": "patent US20220265683A1",
  "about": "“HALOGENATED SALICYLANILIDES FOR THE TREATMENT OF DERMATITIS” (priority 2018, published 2022)",
  "key": {"[1]": {"tested_on": "biomarkers in lesional AD skin", "details": "4 weeks, qRT-PCR; cited from earlier work"}, "[2]": {"tested_on": "dendritic cells", "details": "in-vitro; cited from earlier work"}, "[3]": {"tested_on": "CD3, langerin, CD11c and FceR1 cells in skin biopsies", "assay": "Immunohistochemistry (IHC) of cell markers in lesional skin biopsies, Example 3", "assay_type": "in vivo, human", "details": "Day 22, 2% topical", "method": "(§1) Three skin biopsies were collected in all patients (one from lesional skin at baseline, pre-dosing at Day 1, and two from lesional skin at Day 22 (one where topical niclosamide 2% had been applied and one where the vehicle had been applied). The lesional skin biopsies were analysed for skin thickness and inflammation biomarkers.\n(§2) The skin biopsy samples were analysed by immunohistochemistry (IHC), and by gene expression studies by RT-PCR using TaqMan Low Density Array (TLDA), and by microarray using Affymetrix U133A Plus 2. The immunohistochemistry (IHC) was used to analyse cell biomarkers. The methodologies as disclosed by Guttman-Yassky et al, “Major differences in inflammatory dendritic cells and their products distinguish atopic dermatitis from psoriasis”, The Journal of Allergy and Clinical Immunology, vol. 119, issue 5, pages 1210-1217, 2007, were followed except for that U133A Plus 2-set Gene Chip probe arrays was used instead of U95A-set Gene Chip probe arrays."}, "[4]": {"tested_on": "skin barrier and inflammation biomarkers in lesional skin biopsies", "assay": "Biomarker gene expression in lesional skin biopsies by qRT-PCR (TLDA), Example 3", "assay_type": "in vivo, human", "details": "only responder population, 3 weeks", "method": "(§3) Patients received topical applications of a niclosamide 2% composition and vehicle once daily for 3 weeks, followed by a 1-week follow up period. Topical niclosamide 2% and vehicle was applied on two separate target lesions of atopic dermatitis (lesions of at least 3×3-cm that are at least 2 cm apart, excluding the face, scalp, genitals, hands, and feet). The application areas (5×5-cm) were randomized (1:1) to once daily application of niclosamide 2% or vehicle at 5 mg/cm^2 without occlusion 6 days per week. Patients came to the study site for all study product application for a total of 3 weeks.\nas §1\nSkin barrier and inflammation biomarker levels were determined from lesional skin biopsies from application areas.\nas §2\nExpression values (threshold cycle [Ct]) were normalized to Rplp0 by negatively transforming the Ct values to −dCt (IL17A was normalized to hARP, as analysed by qPCR). The undetected −dCt values were estimated for each gene as the 20% of the minimum across all samples. qRT-PCR expression data were modelled using a mixed effect model with Visit and Treatment Area as a fixed effect and a random intercept for each patient. This formulation intrinsically models the within patient correlation structure as in the case of a paired t-test. This approach introduces less bias than restricting the analysis for those patients who completed the study. Contrasts were used to estimate the fold changes with treatment within each treatment group and conduct hypothesis testing."}, "[5]": {"tested_on": "skin barrier and inflammation biomarkers in lesional skin biopsies", "assay": "Biomarker gene expression in lesional skin biopsies by microarray (Affymetrix U133A Plus 2), Example 3", "assay_type": "in vivo, human", "method": "as §3, §1, §2\nExperimental design: The hybridization strategy was in concordance with experimental design principles, by for example keeping all samples from the same patient in the same date, and always include samples from every treatment arm/group.\nQuality Control and Pre-processing: Quality control of microarray chips were carried out using standard QC metrics and R package microarray Quality Control. Expression measures were obtained using GCRMA algorithm (Wu & Irizarry, 2004). Several visual and modelling techniques were used to elucidate if batch effect existed. Principal Component analysis plots were used to detect if any evident batch effect existed. If such batch effects were found, they were adjusted using Combat, an empirical Bayes method for adjusting data for batch effects that is robust to outliers in small sample sizes (Johnson, Li, & Rabinovic, 2007). The implementation of Combat by package sva was used.\nProbe-sets with at least 5% samples with expression larger than 3 (in log 2-scale) were kept for further analysis. Expression values were modelled using mixed-effect models with fixed factors Visit and Treatment Area and a random effect for each patient. Fold changes for the comparisons of interest were estimated and hypothesis testing was conducted on such comparisons using contrasts under the general framework for linear models in limma package. The inter-replicate correlation was computed by Duplicate Correlation function and the linear model was estimated by ImFit. P-values from the moderated (paired) t-test were adjusted for multiple hypotheses using the Benjamini-Hochberg procedure, which controls for FDR."}, "[6]": {"details": "microarray fold change, Day 22, sign as niclosamide vs vehicle"}, "[7]": {"details": "only responder population, 3 weeks, Microarray"}},
  "note": "Marks after values point to notes of the source that are not given here.",
  "data": [
    {"compound": "Dupilumab: inhibits interleukin-4 and interleukin-13 signalling by binding to interleukin-4 receptor α", "values": [
      {"measurement": "CCL17, Dupilumab 300 mg vs. predose", "setting": "[1]", "value": "−9.2^b"},
      {"measurement": "CCL18, Dupilumab 300 mg vs. predose", "setting": "[1]", "value": "−7.6^c"},
      {"measurement": "CCL22, Dupilumab 300 mg vs. predose", "setting": "[1]", "value": "−2.1^d"},
      {"measurement": "CCL26, Dupilumab 300 mg vs. predose", "setting": "[1]", "value": "−6.3^c"},
      {"measurement": "K16/KRT16, Dupilumab 300 mg vs. predose", "setting": "[1]", "value": "−10.7^b"},
      {"measurement": "MMP12, Dupilumab 300 mg vs. predose", "setting": "[1]", "value": "−14^b"},
      {"measurement": "S100A8, Dupilumab 300 mg vs. predose", "setting": "[1]", "value": "−3^d"},
      {"measurement": "S100A12, Dupilumab 300 mg vs. predose", "setting": "[1]", "value": "−10.4^b"}
    ]},
    {"compound": "O=C(Nc1ccc([N+](=O)[O-])cc1Cl)c1cc(Cl)ccc1O", "note": "[Niclosamide, niclosamide]", "values": [
      {"measurement": "LPS-induced dendritic cell maturation, cytokine, costimulatory and MHC molecule expression", "setting": "[2]", "value": "inhibitory action"},
      {"measurement": "inflammatory cells (dendritic cells: CD11c, FceR1 in epidermis; Langerhans cells: langerin/CD207) compared to baseline", "setting": "[3]", "value": "Significant reductions in inflammatory cells"},
      {"measurement": "total amount of T cells (dermis and epidermis) compared to baseline", "setting": "[3]", "value": "No significant change"},
      {"measurement": "CCL17, Niclosamide 2% qd vs. predose", "setting": "[4]", "value": "−3.42^d"},
      {"measurement": "CCL18, Niclosamide 2% qd vs. predose", "setting": "[4]", "value": "−3.46^d"},
      {"measurement": "CCL20, Niclosamide 2% qd vs. predose", "setting": "[4]", "value": "−2^d"},
      {"measurement": "CCL22, Niclosamide 2% qd vs. predose", "setting": "[4]", "value": "−2.56^d"},
      {"measurement": "CXCL1, Niclosamide 2% qd vs. predose", "setting": "[4]", "value": "−3.82^d"},
      {"measurement": "CXCL2, Niclosamide 2% qd vs. predose", "setting": "[4]", "value": "−2.11^d"},
      {"measurement": "CXCL10, Niclosamide 2% qd vs. predose", "setting": "[4]", "value": "−1.96^d"},
      {"measurement": "DEFB4B, Niclosamide 2% qd vs. predose", "setting": "[4]", "value": "−7.18^c"},
      {"measurement": "FLG, Niclosamide 2% qd vs. predose", "setting": "[4]", "value": "2.06^e"},
      {"measurement": "IL5, Niclosamide 2% qd vs. predose", "setting": "[4]", "value": "−3.69^d"},
      {"measurement": "IL10, Niclosamide 2% qd vs. predose", "setting": "[4]", "value": "−2.16^d"},
      {"measurement": "IL13, Niclosamide 2% qd vs. predose", "setting": "[4]", "value": "−3.18^d"},
      {"measurement": "IL17A, Niclosamide 2% qd vs. predose", "setting": "[4]", "value": "−3.12^d"},
      {"measurement": "IL17C, Niclosamide 2% qd vs. predose", "setting": "[4]", "value": "−3.91^d"},
      {"measurement": "IL19, Niclosamide 2% qd vs. predose", "setting": "[4]", "value": "−6.65^c"},
      {"measurement": "K16/KRT16, Niclosamide 2% qd vs. predose", "setting": "[4]", "value": "−8.46^c"},
      {"measurement": "LOR, Niclosamide 2% qd vs. predose", "setting": "[4]", "value": "2.84^f"},
      {"measurement": "MMP12, Niclosamide 2% qd vs. predose", "setting": "[4]", "value": "−5.12^c"},
      {"measurement": "PI3, Niclosamide 2% qd vs. predose", "setting": "[4]", "value": "−11.2^b"},
      {"measurement": "S100A12, Niclosamide 2% qd vs. predose", "setting": "[4]", "value": "−10.5^b"},
      {"measurement": "CXCL1, 2% niclosamide compared to vehicle", "setting": "[5]; [6]", "value": "−2.10"},
      {"measurement": "S100A12, 2% niclosamide compared to vehicle", "setting": "[5]; [6]", "value": "−2.30"},
      {"measurement": "CD3d, Niclosamide 2% qd vs. predose", "setting": "[5]; [7]", "value": "−2.2^d"},
      {"measurement": "IL4R, Niclosamide 2% qd vs. predose", "setting": "[5]; [7]", "value": "−2.19^d"},
      {"measurement": "IL15, Niclosamide 2% qd vs. predose", "setting": "[5]; [7]", "value": "−1.59^d"},
      {"measurement": "IL22, Niclosamide 2% qd vs. predose", "setting": "[5]; [7]", "value": "−2.1^d"},
      {"measurement": "JAK3, Niclosamide 2% qd vs. predose", "setting": "[5]; [7]", "value": "−1.86^d"},
      {"measurement": "S100A8, Niclosamide 2% qd vs. predose", "setting": "[5]; [7]", "value": "−1.82^d"},
      {"measurement": "S100A9, Niclosamide 2% qd vs. predose", "setting": "[5]; [7]", "value": "−5.15^d"},
      {"measurement": "STAT3, Niclosamide 2% qd vs. predose", "setting": "[5]; [7]", "value": "−1.54^d"}
    ]}
  ]
}
